Measurements reported in US6380198B1 (Laboratoire Medidom S.A., priority 1997, dated 2002).
“And” between values parts separate entries of the source, which are not always exact repeats. Equal entries are not always repeated. Where two headings read alike, the source gives them in different places.

Key:
σ-1 receptors = molecular target: T1, σ-1 receptors (Oryctolagus cuniculus, UniProt G1SD54); assay: [3H](+)-pentazocine receptor binding and competitive binding on irido-ciliary body membranes; set-up: species or system rabbit (New Zealand albino)
T1 construct: cell membranes obtained from the irido-ciliary body complex; from tissue; host or cells: rabbit irido-ciliary body, P2 membrane fraction
T1 sequence (G1SD54 1-223): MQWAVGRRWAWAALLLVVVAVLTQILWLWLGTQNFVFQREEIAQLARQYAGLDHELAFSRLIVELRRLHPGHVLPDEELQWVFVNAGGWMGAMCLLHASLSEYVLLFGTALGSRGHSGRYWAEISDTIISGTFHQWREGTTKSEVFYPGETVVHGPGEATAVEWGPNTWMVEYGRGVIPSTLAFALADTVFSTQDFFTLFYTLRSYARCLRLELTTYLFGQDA
Text: In order to identify the presence of a receptor sites in the eye the technique of “receptor binding” has been exploited. The latter has been carried out on cell membranes obtained from the irido-ciliary body complex. The irido-ciliary body complex had been explanted, after sacrifice, from male albino rabbits of the New Zealand strain. The tissue was homogenised in buffer and a fraction rich in cell membrane proteins was isolated, obtained by centrifugation. […] Aliquots of the said fraction of the homogenate containing 300 μg of total proteins were incubated with scalar amounts of [^3H](+)-pentazocine (which is used, for experimental purposes only, as a a ligand). The reaction was carried out at 37° C. for 150 minutes and then, after filtering, the radioactivity left on the filters was measured by liquid scintillation.

intraocular pressure [1] = assay: Intraocular pressure in New Zealand albino rabbits after instillation of a σ ligand; type: in vivo, rabbit (New Zealand albino); conditions: 1% preparation, 50 μl in right conjunctival fornix; 60 minutes after instillation; p<0.01
Protocol: A 1% preparation of NANM was administered (50 μl) in the conjunctival fornix of the right eye of male albino rabbits of the New Zealand strain, after measuring the (baseline) intraocular pressure.

[2] = tested on: intraocular pressure of rabbits showing normal baseline intraocular pressure; assay: Intraocular pressure in rabbits with normal intraocular pressure after topical instillation; type: in vivo, rabbit (Vienna Blue, pigmented)
intraocular pressure [3] = conditions: cited from earlier work
[4] = tested on: cornea (corneal thickness)
[5] = tested on: intraocular pressure of rabbits with ocular hypertension; assay: Intraocular pressure in rabbits with ocular hypertension induced by α-chymotrypsin; type: in vivo, rabbit (Vienna Blue, pigmented)
intraocular pressure [6] = conditions: general statement on the literature; cited from earlier work
[7] = 50 μl eye-drops, 0.050% flunarizine, equimolar comparators, 0.5% timolol

Compound: C=CCN1CC[C@@]2(C)c3cc(O)ccc3C[C@@H]1[C@@H]2C [NANM, (+)-N-allil-nor-meth-azocine]
- Classes of σ receptor sites bound (Hill coefficient analysis) (σ-1 receptors; competitive binding): interacts with one only class
- Displacement of [3H](+)-pentazocine in competitive binding (σ-1 receptors; constant amount of radioligand, scalar amounts of competitor): shift the radioactive ligands from the receptor sites
- Intraocular pressure versus vehicle (intraocular pressure [1]): significantly reduced

Compound: COc1ccc(CCN(C)CCCC(C#N)(c2ccc(OC)c(OC)c2)C(C)C)cc1OC (centres unmarked) [verapamil]
- Effect on intraocular pressure in rabbits with normal pressure, in words [2, 7]: neither the verapamil formulation nor the diltiazem formulation, both using the same vehicle as MEG 01, did produce any intraocular pressure decrease
- Intraocular pressure (mmHg) at the time (min): 30, average ± S.D. ([2]; Table 1, average ± S.D. of 4 rabbits, 30 min after instillation, 50 μl eye-drops: 0.050% flunarizine, 0.056% verapamil, 0.051% diltiazem, 0.043% nifedipine): 15 ± 1.3 mmHg
- Intraocular pressure (mmHg) at the time (min): 60, average ± S.D. ([2]; Table 1, average ± S.D. of 4 rabbits, 60 min after instillation, 50 μl eye-drops: 0.050% flunarizine, 0.056% verapamil, 0.051% diltiazem, 0.043% nifedipine): 14.7 ± 0.5 mmHg
- Intraocular pressure (mmHg) at the time (min): 90, average ± S.D. ([2]; Table 1, average ± S.D. of 4 rabbits, 90 min after instillation, 50 μl eye-drops: 0.050% flunarizine, 0.056% verapamil, 0.051% diltiazem, 0.043% nifedipine): 14 ± 1.0 mmHg
- Intraocular pressure (mmHg) at the time (min): 120, average ± S.D. ([2]; Table 1, average ± S.D. of 4 rabbits, 120 min after instillation, 50 μl eye-drops: 0.050% flunarizine, 0.056% verapamil, 0.051% diltiazem, 0.043% nifedipine): 15.7 ± 0.5 mmHg
- Intraocular pressure (mmHg) at the time (min): 180, average ± S.D. ([2]; Table 1, average ± S.D. of 4 rabbits, 180 min after instillation, 50 μl eye-drops: 0.050% flunarizine, 0.056% verapamil, 0.051% diltiazem, 0.043% nifedipine): 16.2 ± 0.5 mmHg
- Intraocular pressure (mmHg) at the time (min): 240, average ± S.D. ([2]; Table 1, average ± S.D. of 4 rabbits, 240 min after instillation, 50 μl eye-drops: 0.050% flunarizine, 0.056% verapamil, 0.051% diltiazem, 0.043% nifedipine): 16.5 ± 1.0 mmHg
- Intraocular pressure (mmHg) at the time (min): 0, average ± S.D. ([2]; Table 1, average ± S.D. of 4 rabbits, time 0 = 15 min before instillation (baseline), 50 μl eye-drops: 0.050% flunarizine, 0.056% verapamil, 0.051% diltiazem, 0.043% nifedipine): 16 ± 0.8 mmHg
- Intraocular pressure (mmHg) at the time (min): 30 ([2]; Table 1, individual rabbit, right eye, 30 min after instillation, 50 μl eye-drops: 0.050% flunarizine, 0.056% verapamil, 0.051% diltiazem, 0.043% nifedipine): 16 mmHg and 14 mmHg and 17 mmHg and 15 mmHg
- Intraocular pressure (mmHg) at the time (min): 60 ([2]; Table 1, individual rabbit, right eye, 60 min after instillation, 50 μl eye-drops: 0.050% flunarizine, 0.056% verapamil, 0.051% diltiazem, 0.043% nifedipine): 15 mmHg (3×) and 14 mmHg
- Intraocular pressure (mmHg) at the time (min): 90 ([2]; Table 1, individual rabbit, right eye, 90 min after instillation, 50 μl eye-drops: 0.050% flunarizine, 0.056% verapamil, 0.051% diltiazem, 0.043% nifedipine): 15 mmHg (3×) and 13 mmHg
- Intraocular pressure (mmHg) at the time (min): 120 ([2]; Table 1, individual rabbit, right eye, 120 min after instillation, 50 μl eye-drops: 0.050% flunarizine, 0.056% verapamil, 0.051% diltiazem, 0.043% nifedipine): 16 mmHg (3×) and 13 mmHg
- Intraocular pressure (mmHg) at the time (min): 180 ([2]; Table 1, individual rabbit, right eye, 180 min after instillation, 50 μl eye-drops: 0.050% flunarizine, 0.056% verapamil, 0.051% diltiazem, 0.043% nifedipine): 16 mmHg (3×) and 17 mmHg
- Intraocular pressure (mmHg) at the time (min): 240 ([2]; Table 1, individual rabbit, right eye, 240 min after instillation, 50 μl eye-drops: 0.050% flunarizine, 0.056% verapamil, 0.051% diltiazem, 0.043% nifedipine): 17 mmHg (3×) and 15 mmHg
- Intraocular pressure (mmHg) at the time (min): 0 ([2]; Table 1, individual rabbit, right eye, time 0 = 15 min before instillation (baseline), 50 μl eye-drops: 0.050% flunarizine, 0.056% verapamil, 0.051% diltiazem, 0.043% nifedipine): 17 mmHg and 15 mmHg and 16 mmHg (2×)
- Intraocular pressure after oral administration to rabbits (intraocular pressure [3]; Beatty et al. 1984): did not evidence any effect
- Intraocular pressure after topical administration to rabbits (intraocular pressure [3]; Beatty et al. 1984): increase in the intraocular pressure
- Intraocular pressure after systemic administration to rabbits (intraocular pressure [3]; Payene et al. 1990): reduction in the intraocular pressure
- Intraocular pressure after topical administration to rabbits (intraocular pressure [3]; Payene et al. 1990): did not detect any significant effect
- Corneal thickness (mm): 1 hour ([4]; individual rabbit, treated right eye (RE), 1 hour after single 50 μl instillation, 0.050% flunarizine, 0.056% verapamil, 0.051% diltiazem, 0.043% nifedipine): 0.376 mm and 0.398 mm and 0.387 mm and 0.401 mm
- Corneal thickness (mm): 2 hours ([4]; individual rabbit, treated right eye (RE), 2 hours after single 50 μl instillation, 0.050% flunarizine, 0.056% verapamil, 0.051% diltiazem, 0.043% nifedipine): 0.385 mm and 0.406 mm and 0.400 mm and 0.494 mm
- Corneal thickness (mm): 3 hours ([4]; individual rabbit, treated right eye (RE), 3 hours after single 50 μl instillation, 0.050% flunarizine, 0.056% verapamil, 0.051% diltiazem, 0.043% nifedipine): 0.383 mm and 0.402 mm (2×) and 0.410 mm
- Corneal thickness (mm): Baseline ([4]; individual rabbit, treated right eye (RE), before single 50 μl instillation, 0.050% flunarizine, 0.056% verapamil, 0.051% diltiazem, 0.043% nifedipine): 0.356 mm and 0.384 mm and 0.372 mm and 0.392 mm
- Increase in corneal thickness ([4]; ophthalmic solution containing 0.056% verapamil): 15-20 μm/hour
- Corneal swelling / alteration of corneal thickness, in words ([4]; single 50 μl instillation, observed up to 3 hours): caused comeal swelling
- Effect on intraocular pressure in rabbits with ocular hypertension, in words [5, 7]: do not show any significant reduction
- Intraocular pressure (mmHg) at the time (min): 30, average ± S.D. ([5]; Table 3, hypertensive rabbits, average ± S.D. of 4 rabbits, 30 min after instillation, 50 μl eye-drops: 0.050% flunarizine, 0.056% verapamil, 0.051% diltiazem, 0.043% nifedipine): 48.7 ± 6.5 mmHg
- Intraocular pressure (mmHg) at the time (min): 60, average ± S.D. ([5]; Table 3, hypertensive rabbits, average ± S.D. of 4 rabbits, 60 min after instillation, 50 μl eye-drops: 0.050% flunarizine, 0.056% verapamil, 0.051% diltiazem, 0.043% nifedipine): 50.0 ± 5.47 mmHg
- Intraocular pressure (mmHg) at the time (min): 90, average ± S.D. ([5]; Table 3, hypertensive rabbits, average ± S.D. of 4 rabbits, 90 min after instillation, 50 μl eye-drops: 0.050% flunarizine, 0.056% verapamil, 0.051% diltiazem, 0.043% nifedipine): 48.0 ± 5.94 mmHg
- Intraocular pressure (mmHg) at the time (min): 120, average ± S.D. ([5]; Table 3, hypertensive rabbits, average ± S.D. of 4 rabbits, 120 min after instillation, 50 μl eye-drops: 0.050% flunarizine, 0.056% verapamil, 0.051% diltiazem, 0.043% nifedipine): 48.5 ± 5.97 mmHg
- Intraocular pressure (mmHg) at the time (min): 180, average ± S.D. ([5]; Table 3, hypertensive rabbits, average ± S.D. of 4 rabbits, 180 min after instillation, 50 μl eye-drops: 0.050% flunarizine, 0.056% verapamil, 0.051% diltiazem, 0.043% nifedipine): 48.75 ± 6.39 mmHg
- Intraocular pressure (mmHg) at the time (min): 240, average ± S.D. ([5]; Table 3, hypertensive rabbits, average ± S.D. of 4 rabbits, 240 min after instillation, 50 μl eye-drops: 0.050% flunarizine, 0.056% verapamil, 0.051% diltiazem, 0.043% nifedipine): 49.5 ± 5.44 mmHg
- Intraocular pressure (mmHg) at the time (min): 0, average ± S.D. ([5]; Table 3, hypertensive rabbits, average ± S.D. of 4 rabbits, time 0 = 15 min before instillation (baseline), 50 μl eye-drops: 0.050% flunarizine, 0.056% verapamil, 0.051% diltiazem, 0.043% nifedipine): 49.0 ± 5.94 mmHg
- Intraocular pressure (mmHg) at the time (min): 30 ([5]; Table 3, hypertensive rabbits, individual rabbit, right eye, 30 min after instillation, 50 μl eye-drops: 0.050% flunarizine, 0.056% verapamil, 0.051% diltiazem, 0.043% nifedipine): 55 mmHg and 48 mmHg and 40 mmHg and 52 mmHg
- Intraocular pressure (mmHg) at the time (min): 60 ([5]; Table 3, hypertensive rabbits, individual rabbit, right eye, 60 min after instillation, 50 μl eye-drops: 0.050% flunarizine, 0.056% verapamil, 0.051% diltiazem, 0.043% nifedipine): 56 mmHg and 49 mmHg and 43 mmHg and 52 mmHg
- Intraocular pressure (mmHg) at the time (min): 90 ([5]; Table 3, hypertensive rabbits, individual rabbit, right eye, 90 min after instillation, 50 μl eye-drops: 0.050% flunarizine, 0.056% verapamil, 0.051% diltiazem, 0.043% nifedipine): 55 mmHg and 46 mmHg and 41 mmHg and 50 mmHg
- Intraocular pressure (mmHg) at the time (min): 120 ([5]; Table 3, hypertensive rabbits, individual rabbit, right eye, 120 min after instillation, 50 μl eye-drops: 0.050% flunarizine, 0.056% verapamil, 0.051% diltiazem, 0.043% nifedipine): 55 mmHg and 47 mmHg and 41 mmHg and 51 mmHg
- Intraocular pressure (mmHg) at the time (min): 180 ([5]; Table 3, hypertensive rabbits, individual rabbit, right eye, 180 min after instillation, 50 μl eye-drops: 0.050% flunarizine, 0.056% verapamil, 0.051% diltiazem, 0.043% nifedipine): 57 mmHg and 46 mmHg and 42 mmHg and 50 mmHg
- Intraocular pressure (mmHg) at the time (min): 240 ([5]; Table 3, hypertensive rabbits, individual rabbit, right eye, 240 min after instillation, 50 μl eye-drops: 0.050% flunarizine, 0.056% verapamil, 0.051% diltiazem, 0.043% nifedipine): 56 mmHg and 48 mmHg and 43 mmHg and 51 mmHg
- Intraocular pressure (mmHg) at the time (min): 0 ([5]; Table 3, hypertensive rabbits, individual rabbit, right eye, time 0 = 15 min before instillation (baseline), 50 μl eye-drops: 0.050% flunarizine, 0.056% verapamil, 0.051% diltiazem, 0.043% nifedipine): 56 mmHg and 47 mmHg and 42 mmHg and 51 mmHg
- Intraocular pressure after administration to man (intraocular pressure [6]): reduction of the intraocular pressure
